The source of these data is US11448654B2, “Protein-protein interaction assessed by detecting localized coiled coil subunits” (The Regents of the University of California, priority 2017, dated 2022).

For test [1], the target named is T1, interaction between CRBN and GSPT1 (Homo sapiens, UniProt P15170+Q96SW2).
T1 construct: expressed in transfected cells; host or cells: HEK293
The test can be described thus: SPARK reporter CRBN-EGFP-HOTag3 / GSPT1-HOTag6 in HEK293 cells. The class given is cell-based. As to conditions: time-lapse imaging. The text has this:
Many analogs and derivatives of IMiDs have recently been designed and explored as drug leads. […] To examine whether SPARK can detect CC-885 induced protein-protein interactions, HOTag6 was genetically fused to GSPT1 and co-expressed with CRBN-EGFP-HOTag3 in HEK293 cells. […] Thus, SPARK also detects CC-885 induced protein-protein interactions.

Test [2] relates to protein kinase A (PKA) activity. The test can be described thus: PKA-SPARK phase separation kinase reporter in HEK293 cells. As to conditions: for effect of pre-incubation on isoprenaline-induced droplet formation / PKA-SPARK signal: HEK293 cells, pre-incubation before isoprenaline. It counts as cell-based, human. From the text:
To design a SPARK-based PKA, reporter (named PKA-SPARK), a consensus peptide sequence was utilized that is specifically phosphorylated by PKA, as described in Durocher et al., (2000). The molecular basis of FHA domain: phosphopeptide binding specificity and implications for phospho-dependent signaling mechanisms. Mol Cell 6, 1169-1182. To introduce PKA activity-dependent PPI, forkhead-associated domain 1 (FHA1) was sued, which is a phosphothreonine binding domain. […] These two fusion sequences were connected by a “self-cleaving” 2A sequence. The rationale was that substrate and the FHA1 would induce PKA activity-dependent protein-protein interaction, the two HOTags introduce multivalency; and upon PKA activation, multivalent protein-protein interactions would be induced, leading to phase separation and formation of EGFP droplets.
To test the construct, the β-adrenergic agonist isoprenaline was added to HEK293 cells that endogenously express β-adrenergic receptors (βAR). βAR activation induces GDP for GTP exchange in the heteratrimeric G protein Gs, and GTP-bound Gαs activates adenylyl cyclase (AC), which converts ATP into cAMP that activates PKA. […] In order to confirm that the phase separation results from phosphorylation of PKA-SPARK at the expected threonine residue, we changed the threonine to alanine in the PKA substrate sequence.
Next it was tested whether phase separation of the reporter is reversible, i.e. whether the EGFP droplets would disassemble or dissolve when PKA is inactivated. Cells were pre-incubated with isoprenaline to induce phase separation, then isoprenaline was removed and H89 added to inactivate PKA. […] As a control, the EGFP droplets were stable over time in the cells with removal of isoprenaline but addition of medium without H89. […] To examine whether PKA-SPARK could quantitatively measure the droplets' disassembly over time after PKA inhibition, we defined “SPARK signal” as the sum of fluorescent droplets' pixel intensity divided by sum of cells' pixel intensity. Upon addition of H89, the SPARK signal decreased over time. In contrast, for the control the SPARK signal remained constant over time.
Time-lapse fluorescence imaging of PKA-SPARK was performed at 10 seconds per frame. […] PKA activation upon addition of isoprenaline was confirmed by AKAR2 reporter. Small droplets of PKA-SPARK were detected as early as at 20 seconds upon addition of isoprenaline. The quick activation of PKA is consistent with rapid activation of the βAR-cAMP-PKA pathway. The small droplets grew quickly and coalesced into large and intensively fluorescent droplets, which were up to 10-fold brighter than the cellular fluorescence before PKA activation. […] Therefore, PKA-SPARK achieves up to 10-fold fluorescence increase, compared to prior art AKAR2 and PKA-KTR reporters, which have ˜10% and ˜30% fluorescence ratio change, respectively. […] The results also verified that PKA-SPARK could detect PKA activity over a wide range of reporter expression. Lastly the concentration of PKA-SPARK (2-10 μM) appeared to have no effect on kinetics of droplet assembly and disassembly.
In additional experiments, PKA was activated via the G-coupled GPCR βAR. Isoprenaline was added to activate endogenous βARs in HEK293 cells.

Another test concerns ERK activity. The test can be described thus: ERK-SPARK phase separation kinase reporter in HEK293 cells. As to conditions: for effect of pre-incubation on phase separation of ERK-SPARK upon addition of EGF: HEK293 cells, pre-incubation before EGF.
The subject of the next test is PKA activity. The test can be described thus: PKA-SPARK in zebrafish embryo muscle cells. The class given is in vivo. The conditions noted are these: 24 hrs APF, upon addition of isoprenaline.

T1 sequence (Q96SW2 whole entry): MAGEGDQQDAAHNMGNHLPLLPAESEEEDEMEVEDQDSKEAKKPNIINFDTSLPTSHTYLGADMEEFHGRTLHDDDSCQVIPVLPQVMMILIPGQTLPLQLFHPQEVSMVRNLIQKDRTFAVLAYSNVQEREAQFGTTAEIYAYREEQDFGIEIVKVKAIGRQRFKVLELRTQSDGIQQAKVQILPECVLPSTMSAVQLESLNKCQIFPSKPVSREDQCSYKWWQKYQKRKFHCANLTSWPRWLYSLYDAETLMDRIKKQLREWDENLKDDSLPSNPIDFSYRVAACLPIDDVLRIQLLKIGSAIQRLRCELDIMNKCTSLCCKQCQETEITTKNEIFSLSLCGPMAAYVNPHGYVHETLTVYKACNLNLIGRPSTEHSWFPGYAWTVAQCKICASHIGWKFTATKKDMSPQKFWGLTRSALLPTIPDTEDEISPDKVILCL
T1 sequence (P15170 whole entry): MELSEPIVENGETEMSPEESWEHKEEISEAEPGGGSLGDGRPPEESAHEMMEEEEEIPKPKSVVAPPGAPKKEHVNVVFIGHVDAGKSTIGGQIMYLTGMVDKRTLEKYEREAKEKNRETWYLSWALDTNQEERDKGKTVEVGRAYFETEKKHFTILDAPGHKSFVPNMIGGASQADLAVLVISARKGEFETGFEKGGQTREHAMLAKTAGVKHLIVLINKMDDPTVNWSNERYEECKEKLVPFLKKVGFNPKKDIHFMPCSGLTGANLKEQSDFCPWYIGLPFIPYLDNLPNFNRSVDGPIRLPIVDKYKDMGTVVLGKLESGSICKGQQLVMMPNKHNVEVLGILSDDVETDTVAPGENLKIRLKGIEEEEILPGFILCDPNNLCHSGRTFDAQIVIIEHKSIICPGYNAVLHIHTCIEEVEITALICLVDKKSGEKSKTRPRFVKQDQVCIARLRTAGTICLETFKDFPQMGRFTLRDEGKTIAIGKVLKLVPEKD
Excerpt for ERK activity: To determine whether the SPARK design generalizes, the highly conserved kinase ERK was utilized in a second pair of reporter fusion proteins. To design a SPARK-based ERK reporter (ERK-SPARK), the ERK activity-sensing motifs that were used for previous FRET-based ERK reporters were employed. One of the ERK activity-sensing motifs is a phosphopeptide sequence from Cdc25C, followed by an ERK-specific docking site that determines substrate specificity. The companion fragment is a WW domain that binds the phosphorylated substrate. The ERK substrate sequence was fused to EGFP followed by HOTag3, and the WW domain was fused to EGFP followed by HOTag6. The two fusions were connected by a “self-cleaving” 2A sequence. The pair of reporter fusion proteins was expressed in HEK293 cells exposed to epidermal growth factor (EGF). EGF binds the EGF receptor, resulting in ERK activation. […] Because the ERK docking site was previously shown to be critical for ERK recognition and binding to substrate, a reporter lacking the 4-amino-acid docking site was generated.
To investigate whether ERK-SPARK could detect GPCR-induced ERK activity, a hexapeptide full agonist for protease-activated receptor-1 was added to HEK293 cells.

Take `Cc1ccc(NC(=O)NCc2ccc3c(c2)CN(C2CCC(=O)NC2=O)C3=O)cc1Cl` (centres unmarked) [CC-885]: the “droplet formation (punctal green fluorescence) upon addition” value in test [1] is “intensely bright and punctal green fluorescence”.

Consider `O=S(=O)(NCCNC/C=C/c1ccc(Br)cc1)c1cccc2cnccc12` [H89], for which, in test [2], the “effect of pre-incubation on isoprenaline-induced droplet formation / PKA-SPARK signal” value is “abolished isoprenaline-induced droplet formation”. Moreover, in test [2] (cells pre-incubated with isoprenaline, isoprenaline removed, H89 added), the “EGFP droplet disassembly when PKA is inactivated” value is recorded as “EGFP droplets disassembled rapidly”.

Turning to `O=C(NOC[C@H](O)CO)c1ccc(F)c(F)c1Nc1ccc(I)cc1F` [PD 0325901], in the test on ERK activity, the “effect of pre-incubation on phase separation of ERK-SPARK upon addition of EGF” value was “abolished phase separation”.

Consider `C[S+]([O-])c1ccc(-c2nc(-c3ccncc3)c(-c3ccc(F)cc3)[nH]2)cc1` (centres unmarked) [SB 203580], for which, in the test with ERK activity, the “effect of pre-incubation on phase separation of ERK-SPARK upon addition of EGF” value is reported as “did not abolish formation of EGFP droplets”.

Consider `COc1ccccc1OCCNCC(O)COc1cccc2[nH]c3ccccc3c12` (centres unmarked) [carvedilol], for which the “effect of pre-incubation on isoprenaline-induced droplet formation / PKA-SPARK signal” value in test [2] was “abolished the sustained PKA-SPARK signals”.

For `CC(C)NCC(O)c1ccc(O)c(O)c1` (centres unmarked) [isoprenaline], in test [2] (endogenous βARs in HEK293 cells), the “persistence of EGFP droplets (sustained PKA activity)” value was “at least 3 hrs”. In addition, the “fluorescent droplet formation upon addition of βAR agonist” value in test [2] (reporter-expressing HEK293 cells) is reported as “fluorescent droplets formed”. Besides, the “earliest detection of small PKA-SPARK droplets after addition” value in test [2] (time-lapse imaging at 10 seconds per frame) worked out at 20 s. Moreover, the “EGFP droplet formation in muscle cells” value in the test on PKA activity is “EGFP droplet formation”.

“EGF: epidermal growth factor; binds the EGF receptor, resulting in ERK activation (NSDSECPLSHDGYCLHDGVCMYIEALDKYACNCVVGYIGERCQYRDLKWWELR; UniProt P01133 971-1023, looked up)”: the “EGFP droplet formation upon addition of stimulus” value with ERK activity (ERK-SPARK expressing HEK293 cells) was “EGFP droplets formed”.
